Laboratory results reported in the NIST ThermoML archive (doi:10.1016/j.jct.2018.08.013).
Several values for one entry are separate records, joined by “and”; a condition that tells them apart may be missing. Equal values may be shown once. Numbers after ± are expanded uncertainties.

Test: specific heat capacity at constant pressure; xn = mol fraction of the nth substance listed
Settings: 100 kPa, Crystal of intercomponent compound 1, x2 = 0.493

[S] [sulfur] + [Ga]
Settings | specific heat capacity
176.69 K, relaxation calorimetry | 362.51 ± 15 J/K/kg
183.46 K, relaxation calorimetry | 377.05 ± 15 J/K/kg
183.56 K, relaxation calorimetry | 375.87 ± 15 J/K/kg
183.6 K, relaxation calorimetry | 370.67 ± 15 J/K/kg
190.49 K, relaxation calorimetry | 383.83 ± 16 J/K/kg
190.59 K, relaxation calorimetry | 383.53 ± 16 J/K/kg
190.65 K, relaxation calorimetry | 378.13 ± 15 J/K/kg
197.48 K, relaxation calorimetry | 388.94 ± 16 J/K/kg
197.53 K, relaxation calorimetry | 389.63 ± 16 J/K/kg
197.63 K, relaxation calorimetry | 385.2 ± 16 J/K/kg
204.39 K, relaxation calorimetry | 394.64 ± 16 J/K/kg
204.41 K, relaxation calorimetry | 396.21 ± 16 J/K/kg
204.53 K, relaxation calorimetry | 392.18 ± 16 J/K/kg
211.42 K, relaxation calorimetry | 400.83 ± 16 J/K/kg
211.46 K, relaxation calorimetry | 401.71 ± 16 J/K/kg
211.56 K, relaxation calorimetry | 397.19 ± 16 J/K/kg
218.3 K, relaxation calorimetry | 405.64 ± 17 J/K/kg
218.34 K, relaxation calorimetry | 407.41 ± 17 J/K/kg
218.45 K, relaxation calorimetry | 402.99 ± 16 J/K/kg
225.38 K, relaxation calorimetry | 410.35 ± 17 J/K/kg and 412.32 ± 17 J/K/kg
225.51 K, relaxation calorimetry | 408.68 ± 17 J/K/kg
232.24 K, relaxation calorimetry | 414.68 ± 17 J/K/kg and 416.64 ± 17 J/K/kg
232.38 K, relaxation calorimetry | 412.81 ± 17 J/K/kg
239.31 K, relaxation calorimetry | 418.61 ± 17 J/K/kg and 420.57 ± 17 J/K/kg
239.44 K, relaxation calorimetry | 416.94 ± 17 J/K/kg
246.17 K, relaxation calorimetry | 422.44 ± 17 J/K/kg
246.31 K, relaxation calorimetry | 420.96 ± 17 J/K/kg
253.25 K, relaxation calorimetry | 426.56 ± 17 J/K/kg
253.26 K, relaxation calorimetry | 424.99 ± 17 J/K/kg
253.37 K, relaxation calorimetry | 424.7 ± 17 J/K/kg
260.11 K, relaxation calorimetry | 428.53 ± 17 J/K/kg and 430.1 ± 17 J/K/kg
260.22 K, relaxation calorimetry | 427.94 ± 17 J/K/kg
260.51 K, Extra sensitive DSC | 429.81 ± 17 J/K/kg
263.12 K, Extra sensitive DSC | 432.26 ± 17 J/K/kg
265.73 K, Extra sensitive DSC | 432.66 ± 17 J/K/kg
267.18 K, relaxation calorimetry | 432.16 ± 18 J/K/kg and 433.25 ± 18 J/K/kg
267.28 K, relaxation calorimetry | 431.28 ± 17 J/K/kg
268.33 K, Extra sensitive DSC | 434.33 ± 17 J/K/kg
270.07 K, Extra sensitive DSC | 435.41 ± 17 J/K/kg
273.54 K, Extra sensitive DSC | 436.78 ± 17 J/K/kg
274.03 K, relaxation calorimetry | 435.6 ± 18 J/K/kg and 437.27 ± 18 J/K/kg
274.12 K, relaxation calorimetry | 434.33 ± 18 J/K/kg
276.15 K, Extra sensitive DSC | 437.37 ± 17 J/K/kg
279.62 K, Extra sensitive DSC | 439.04 ± 17 J/K/kg
281.12 K, relaxation calorimetry | 440.32 ± 18 J/K/kg
281.13 K, relaxation calorimetry | 440.12 ± 18 J/K/kg
281.19 K, relaxation calorimetry | 438.35 ± 18 J/K/kg
283.09 K, Extra sensitive DSC | 440.42 ± 17 J/K/kg
285.7 K, Extra sensitive DSC | 441.4 ± 17 J/K/kg
287.94 K, relaxation calorimetry | 442.87 ± 18 J/K/kg
287.95 K, relaxation calorimetry | 442.09 ± 18 J/K/kg
288.02 K, relaxation calorimetry | 441.2 ± 18 J/K/kg
289.17 K, Extra sensitive DSC | 442.77 ± 17 J/K/kg
292.64 K, Extra sensitive DSC | 444.15 ± 17 J/K/kg
295 K, relaxation calorimetry | 443.07 ± 18 J/K/kg and 444.35 ± 18 J/K/kg
295.08 K, relaxation calorimetry | 443.46 ± 18 J/K/kg
295.25 K, Extra sensitive DSC | 444.64 ± 17 J/K/kg
297.85 K, Extra sensitive DSC | 445.72 ± 17 J/K/kg
300.45 K, Extra sensitive DSC | 446.61 ± 17 J/K/kg
301.99 K, relaxation calorimetry | 450.73 ± 18 J/K/kg
302 K, relaxation calorimetry | 450.83 ± 18 J/K/kg
302.09 K, relaxation calorimetry | 445.23 ± 18 J/K/kg
303.06 K, Extra sensitive DSC | 447.88 ± 17 J/K/kg
305.66 K, Extra sensitive DSC | 448.77 ± 17 J/K/kg
308.26 K, Extra sensitive DSC | 449.75 ± 17 J/K/kg
310.87 K, Extra sensitive DSC | 450.44 ± 17 J/K/kg
313.47 K, Extra sensitive DSC | 451.52 ± 17 J/K/kg
315.21 K, Extra sensitive DSC | 452.11 ± 17 J/K/kg
317.81 K, Extra sensitive DSC | 452.3 ± 17 J/K/kg
320.41 K, Extra sensitive DSC | 453.09 ± 18 J/K/kg
323.02 K, Extra sensitive DSC | 453.29 ± 18 J/K/kg
325.62 K, Extra sensitive DSC | 454.17 ± 18 J/K/kg
328.23 K, Extra sensitive DSC | 455.45 ± 18 J/K/kg
329.96 K, Extra sensitive DSC | 455.35 ± 18 J/K/kg
332.56 K, Extra sensitive DSC | 455.84 ± 18 J/K/kg
335.17 K, Extra sensitive DSC | 456.53 ± 18 J/K/kg
337.77 K, Extra sensitive DSC | 457.22 ± 18 J/K/kg
340.38 K, Extra sensitive DSC | 458.2 ± 18 J/K/kg
342.98 K, Extra sensitive DSC | 459.18 ± 18 J/K/kg
345.58 K, Extra sensitive DSC | 459.28 ± 18 J/K/kg
348.19 K, Extra sensitive DSC | 460.46 ± 18 J/K/kg
350.79 K, Extra sensitive DSC | 461.15 ± 18 J/K/kg
353.39 K, Extra sensitive DSC | 460.75 ± 18 J/K/kg
356 K, Extra sensitive DSC | 461.93 ± 18 J/K/kg
358.6 K, Extra sensitive DSC | 462.72 ± 18 J/K/kg
